Measurements as given in patent US20050054770A1, “Helicomimetics and stabilized lxxll peptidomimetics” (priority 2001, published 2005).
Where two headings read alike, the source gives them in different places. Positions of bridges follow the written chain, without caps; N, C: chain ends. Non-standard residues stand in square brackets, D forms with d. Residues, ends and D or L forms follow the SMILES beside them. dPen = CC(C)(S)[C@@H](N)C(=O)O; Pen = CC(C)(S)[C@H](N)C(=O)O; hCys = N[C@@H](CCS)C(=O)O; Aib = CC(C)(N)C(=O)O

Experiments:
ER beta = ER beta (Homo sapiens, UniProt Q92731); experiment: competition binding assay against a model linear peptide sequence (estrogen receptor-coactivator interaction), ER beta
Method: (§1) The synthetic helicormimetic peptides designed as antagonists of the estrogen receptor-coactivator interactions were tested in a competition binding assay (Lilly Research Labs) against a model linear peptide sequence. Activities are reported in the Table below in Ki values, with two of the best analogs labeled as PERM-1 and PERM-2, or Peptidomimetic Estrogen Receptor Modulators.

ER alpha = target: T1, ER alpha (Homo sapiens, UniProt P03372); experiment: competition binding assay against a model linear peptide sequence (estrogen receptor-coactivator interaction), ER alpha
T1 sequence (P03372 1-595): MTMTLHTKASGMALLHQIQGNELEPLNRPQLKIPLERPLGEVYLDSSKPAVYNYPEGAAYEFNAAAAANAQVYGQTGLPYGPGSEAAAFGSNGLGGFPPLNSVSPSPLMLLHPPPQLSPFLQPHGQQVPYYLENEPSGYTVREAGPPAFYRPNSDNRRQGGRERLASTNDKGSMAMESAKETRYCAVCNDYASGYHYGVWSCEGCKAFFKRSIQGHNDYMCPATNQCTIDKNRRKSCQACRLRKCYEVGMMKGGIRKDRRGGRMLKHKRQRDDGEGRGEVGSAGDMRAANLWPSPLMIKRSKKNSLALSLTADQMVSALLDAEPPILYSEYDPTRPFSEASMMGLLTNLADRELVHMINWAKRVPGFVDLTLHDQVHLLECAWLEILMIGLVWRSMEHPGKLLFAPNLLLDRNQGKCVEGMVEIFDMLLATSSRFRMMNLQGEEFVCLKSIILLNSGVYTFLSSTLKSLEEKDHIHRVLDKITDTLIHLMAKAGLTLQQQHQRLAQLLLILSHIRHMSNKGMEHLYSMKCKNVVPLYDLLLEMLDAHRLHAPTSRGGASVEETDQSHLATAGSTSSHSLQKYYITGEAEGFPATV
Method: as §1

[1] = competition binding assay (Lilly Research Labs), read-out: Ki ER β
[2] = competition binding assay (Lilly Research Labs), read-out: Ki ER α

ER beta, sequence (Q92731 whole entry): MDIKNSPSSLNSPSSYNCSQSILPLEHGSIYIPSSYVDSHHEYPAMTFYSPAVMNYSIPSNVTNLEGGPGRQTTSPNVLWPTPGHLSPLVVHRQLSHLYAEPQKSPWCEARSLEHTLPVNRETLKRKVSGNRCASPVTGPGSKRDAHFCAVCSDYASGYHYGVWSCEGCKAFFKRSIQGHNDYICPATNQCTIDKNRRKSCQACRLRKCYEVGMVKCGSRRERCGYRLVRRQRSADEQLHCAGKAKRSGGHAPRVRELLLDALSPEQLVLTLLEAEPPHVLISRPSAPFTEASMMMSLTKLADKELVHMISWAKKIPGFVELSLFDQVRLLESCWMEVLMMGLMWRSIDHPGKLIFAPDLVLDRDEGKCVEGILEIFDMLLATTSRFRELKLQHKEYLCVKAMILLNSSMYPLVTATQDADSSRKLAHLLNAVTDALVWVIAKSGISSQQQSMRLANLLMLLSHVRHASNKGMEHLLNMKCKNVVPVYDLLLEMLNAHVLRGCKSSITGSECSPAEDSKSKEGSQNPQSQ

SMILES	Ki (ER beta; [1]) [µM]	Ki (ER alpha; [2]) [µM]	Ki (ER beta; read-out: Ki value against ER beta) [µM]	selectivity ER alpha versus ER beta (ER alpha; from Ki values against ER alpha and ER beta)	Ki (ER alpha; read-out: Ki value against ER alpha) [µM]
CC[C@H](C)[C@@H]1NC(=O)[C@H](CC(C)C)NC(=O)[C@@H](NC(=O)[C@@H](N)CCCCN)CSSC[C@H](C(=O)N[C@@H](CCCNC(=N)N)C(=O)N[C@@H](CC(C)C)C(=O)N[C@@H](CC(C)C)C(=O)N[C@@H](CCC(N)=O)C(N)=O)NC1=O [AKG-I-59, H-Lys-cyclo(Cys-Leu-Ile-D-Cys)-Arg-Leu-Leu-Gln-NH2] (H-KCLI[dC]RLLQ-NH2; disulfide 2-5)	17	2.1	–	–	–
CC[C@H](C)[C@@H]1NC(=O)[C@H](NC(=O)[C@@H](N)CCCCN)CSSC[C@@H](C(=O)N[C@@H](CCCNC(=N)N)C(=O)N[C@@H](CC(C)C)C(=O)N[C@@H](CC(C)C)C(=O)N[C@@H](CCC(N)=O)C(N)=O)NC(=O)[C@H](CC(C)C)NC1=O [AML-I-48/4, H-Lys-cyclo (D-Cys-Ile-Leu-Cys)-Arg-Leu-Leu-Gln-NH2] (H-K[dC]ILCRLLQ-NH2; disulfide 2-5)	0.39	–	~0.39	exhibits selectivity against the ER alpha receptor	0.025
CC[C@H](C)[C@@H]1NC(=O)[C@H](NC(=O)[C@@H](N)CCCCN)CSSC[C@H](C(=O)N[C@@H](CCCNC(=N)N)C(=O)N[C@@H](CC(C)C)C(=O)N[C@@H](CC(C)C)C(=O)N[C@@H](CCC(N)=O)C(N)=O)NC(=O)[C@H](CC(C)C)NC1=O [AKG-I-61, H-Lys-cyclo(D-Cys-Ile-Leu-D-Cys)-Arg-Leu-Leu-Gln-NH2] (H-K[dC]IL[dC]RLLQ-NH2; disulfide 2-5)	3.9	0.928	–	–	–
CC[C@H](C)[C@H](NC(=O)[C@H](CCCCN)NC(=O)[C@H](Cc1c[nH]cn1)NC(=O)[C@@H](N)CCCCN)C(=O)N[C@@H](CC(C)C)C(=O)N[C@@H](Cc1c[nH]cn1)C(=O)N[C@@H](CCCNC(=N)N)C(=O)N[C@@H](CC(C)C)C(=O)N[C@@H](CC(C)C)C(=O)N[C@@H](CCC(N)=O)C(=O)N[C@@H](CC(=O)O)C(=O)N[C@@H](CO)C(=O)N[C@@H](CO)C(=O)O [AML-I-89/2, H-Lys-His-Lys-Ile-Leu-His-Arg-Leu-Leu-Gln-Asp-Ser-Ser-OH] (H-KHKILHRLLQDSS-OH)	6.9	0.38	–	–	–
CC(C)C[C@H](NC(=O)[C@H](CC(C)C)NC(=O)[C@H](CCCNC(=N)N)NC(=O)[C@H]1CSSC[C@H](NC(=O)[C@@H](N)CCCCN)C(=O)N[C@@H](CC(C)C)C(=O)N1)C(=O)N[C@@H](CCC(N)=O)C(N)=O [AKG-I-63, H-Lys-cyclo(Cys-Leu-D-Cys)-Arg-Leu-Leu-Gln-NH2] (H-KCL[dC]RLLQ-NH2; disulfide 2-4)	7.9	2.2	–	–	–
CC[C@H](C)[C@@H]1NC(=O)[C@H](NC(=O)[C@@H](N)CCCNC(=N)N)C(C)(C)SSC[C@@H](C(=O)N[C@@H](CCCNC(=N)N)C(=O)N[C@@H](CC(C)C)C(=O)N[C@@H](CC(C)C)C(=O)N[C@@H](CCC(N)=O)C(N)=O)NC(=O)[C@H](CC(C)C)NC1=O [AKG-II-9, H-Arg-cyclo (D-Pen-Ile-Leu-Cys)-Arg-Leu-Leu-Gln-NH2] (H-R[dPen]ILCRLLQ-NH2; disulfide 2-5)	0.933	0.168	–	–	–
CC[C@H](C)[C@@H]1NC(=O)[C@H](NC(=O)[C@@H](N)CCCNC(=N)N)CSSC(C)(C)[C@@H](C(=O)N[C@@H](CCCNC(=N)N)C(=O)N[C@@H](CC(C)C)C(=O)N[C@@H](CC(C)C)C(=O)N[C@@H](CCC(N)=O)C(N)=O)NC(=O)[C@H](CC(C)C)NC1=O [AKG-II-10, H-Arg-cyclo (D-Cys-Ile-Leu-Pen)-Arg-Leu-Leu-Gln-NH2] (H-R[dC]IL[Pen]RLLQ-NH2; disulfide 2-5)	1.91	0.088	–	–	–
CC(C)C[C@H](NC(=O)[C@H](CC(C)C)NC(=O)[C@H](CCC(N)=O)NC(=O)[C@H](CCC(=O)O)NC(=O)[C@H](CC(C)C)NC(=O)CC1O[C@H](CO)[C@@H](O)[C@H](O)[C@@H]1O)C(=O)O (stereo partly drawn) [AML-I-31, Mannosylacetvl-Leu-Glu-Gln-Leu-Leu-OH]	339	–	–	–	–
CC[C@H](C)[C@@H]1NC(=O)[C@@H](NC(=O)[C@@H](N)CCCCN)CSC[C@@H](C(=O)N[C@@H](CCCNC(=N)N)C(=O)N[C@@H](CC(C)C)C(=O)N[C@@H](CC(C)C)C(=O)N[C@@H](CCC(N)=O)C(N)=O)NC(=O)[C@H](CC(C)C)NC1=O [AKG-I-39, H-Lys-cyclo (Ala-Ile-Leu-Ala)- Arg-Leu-Leu-Gln-NH2, Lanthionine]	15.4	1.18	–	–	–
CC[C@H](C)[C@@H]1NC(=O)[C@H](NC(=O)[C@H](N)CCCCN)CSSC[C@@H](C(=O)N[C@@H](CCCNC(=N)N)C(=O)N[C@@H](CC(C)C)C(=O)N[C@@H](CC(C)C)C(=O)N[C@@H](CCC(N)=O)C(N)=O)NC(=O)[C@H](CC(C)C)NC1=O [AKG-I-28, H-D-Lys-cyclo (D-Cys-Ile-Leu-Cys)-Arg-Leu-Leu-Gln-NH2] (H-[dK][dC]ILCRLLQ-NH2; disulfide 2-5)	1.9	0.22	–	–	–
CC[C@H](C)[C@@H]1NC(=O)[C@H](NC(=O)[C@H](CC(C)C)NC(=O)[C@H](CC(C)C)NC(=O)[C@@H](N)CCCCN)CSSC[C@@H](C(=O)N[C@@H](CCCNC(=N)N)C(=O)N[C@@H](CC(C)C)C(=O)N[C@@H](CC(C)C)C(=O)N[C@@H](CCC(N)=O)C(N)=O)NC(=O)[C@H](CC(C)C)NC1=O [AKG-I-46, H-Lys-Leu-Leu-cyclo(D-Cys-Ile-Leu-Cys)-Arg-Leu-Leu-Gln-NH2] (H-KLL[dC]ILCRLLQ-NH2; disulfide 4-7)	2	0.398	–	–	–
CC[C@H](C)[C@@H]1NC(=O)[C@@H](NC(=O)[C@@H](N)CCCNC(=N)N)CSSC[C@@H](C(=O)N[C@@H](CC(C)C)C(=O)N[C@@H](CC(C)C)C(=O)N[C@@H](CCC(N)=O)C(N)=O)NC(=O)[C@H](CCCNC(=N)N)NC(=O)[C@H](CC(C)C)NC1=O [AKG-II-8, H-Arg-cyclo (Cys-Ile-Leu-Arg-Cys)-Leu-Leu-Gln-NH2] (H-RCILRCLLQ-NH2; disulfide 2-6)	1.16	0.174	–	–	–
CC[C@H](C)[C@@H]1NC(=O)[C@H](NC(=O)[C@@H](N)CCCNC(=N)N)CSSCC[C@@H](C(=O)N[C@@H](CCCNC(=N)N)C(=O)N[C@@H](CC(C)C)C(=O)N[C@@H](CC(C)C)C(=O)N[C@@H](CCC(N)=O)C(N)=O)NC(=O)[C@H](CC(C)C)NC1=O [AKG-II-3, H-Arg-cyclo (D-Cys-Ile-Leu-HomoCys)-Arg-Leu-Leu-Gln-NH2] (H-R[dC]IL[hCys]RLLQ-NH2; disulfide 2-5)	0.214	0.013	–	–	–
CC[C@H](C)[C@H](NC(=O)[C@H](CCCCN)NC(=O)[C@@H](N)CCCCN)C(=O)N[C@@H](CC(C)C)C(=O)N[C@@H](Cc1c[nH]cn1)C(=O)N[C@@H](CCCNC(=N)N)C(=O)N[C@@H](CC(C)C)C(=O)N[C@@H](CC(C)C)C(=O)N[C@@H](CCC(N)=O)C(N)=O [AML-I-61/2, H-Lys-Lys-Ile-Leu-His-Arg-Leu-Leu-Gln-NH2] (H-KKILHRLLQ-NH2)	2.8	0.17	–	–	–
CC[C@H](C)[C@@H]1NC(=O)[C@H](NC(=O)[C@@H](N)CCCNC(=N)N)C(C)(C)SSC(C)(C)[C@@H](C(=O)N[C@@H](CCCNC(=N)N)C(=O)N[C@@H](CC(C)C)C(=O)N[C@@H](CC(C)C)C(=O)N[C@@H](CCC(N)=O)C(N)=O)NC(=O)[C@H](CC(C)C)NC1=O [AKG-II-11, H-Arg-cyclo(D-Pen-Ile-Leu-Pen)-Arg-Leu-Leu-Gln-NH2] (H-R[dPen]IL[Pen]RLLQ-NH2; disulfide 2-5)	3.97	0.078	–	–	–
CC[C@H](C)[C@@H]1NC(=O)[C@H](NC(=O)[C@@H](N)CCCNC(=N)N)CSSC[C@@H](C(=O)N[C@@H](CCCNC(=N)N)C(=O)N[C@@H](CC(C)C)C(=O)N[C@@H](CC(C)C)C(=O)N[C@@H](CCC(N)=O)C(N)=O)NC(=O)[C@H](CC(C)C)NC1=O [AKG-I-50, H-Arg-cyclo(D-Cys-Ile-Leu-Cys)-Arg-Leu-Leu-Gln-NH2] (H-R[dC]ILCRLLQ-NH2; disulfide 2-5)	0.077	0.011	–	–	–
CC[C@H](C)[C@@H]1NC(=O)[C@H](NC(=O)[C@H](CCCCN)NC(=O)C(C)(C)N)CSSC[C@@H](C(=O)N[C@@H](CCCNC(=N)N)C(=O)N[C@@H](CC(C)C)C(=O)N[C@@H](CC(C)C)C(=O)N[C@@H](CCC(N)=O)C(N)=O)NC(=O)[C@H](CC(C)C)NC1=O [AML-I-83/4, Aib-Lys-cyclo(D-Cys-Ile-Leu-Cys)-Arg-Leu-Leu-Gln-NH2] (H-[Aib]K[dC]ILCRLLQ-NH2; disulfide 3-6; N-terminus assumed)	1.4	0.13	–	–	–
CC[C@H](C)[C@@H]1NC(=O)[C@H](CC(C)C)NC(=O)[C@H](NC(=O)[C@@H](N)CCCNC(=N)N)CSSC[C@@H](C(=O)N[C@@H](CCCNC(=N)N)C(=O)N[C@@H](CC(C)C)C(=O)N[C@@H](CC(C)C)C(=O)N[C@@H](CCC(N)=O)C(N)=O)NC1=O [AKG-II-1, H-Arg-cyclo (D-Cys-Leu-Ile-Cys)-Arg-Leu-Leu-Gln-NH2] (H-R[dC]LICRLLQ-NH2; disulfide 2-5)	0.216	0.013	–	–	–
